From ChEMBL document CHEMBL5346877, “A-ring-fused pyrazoles of dihydrotestosterone targeting prostate cancer cells via the downregulation of the androgen receptor” (Eur J Med Chem, 2023) come the findings set out here.

One assay relates to DU-145. Nature of the assay: Cytotoxicity against human DU-145 cells assessed as cell viability at 20 uM incubated for 72 hrs by resazurin dye based microplate reader assay. The settings on record: read-out: Activity. In kind it is functional. For orientation: Alamar Blue is a resazurin reagent that responds to reducing activity.
In assay [1] the test system is LAPC4. Put plainly: Inhibition of colony formation in human LAPC4 cells at 5 uM incubated for 10 days by crystal violet staining based assay. It is filed as functional, cell-based. The settings on record: time 10.0 day.
For a further assay, the system named is CWR22R. Put plainly: Cytotoxicity against human 22Rv1 cells assessed as cell viability at 20 uM incubated for 72 hrs by resazurin dye based microplate reader assay. In kind it is functional. The settings on record: read-out: Activity.
Assay [2] relates to LAPC4. Nature of the assay: Inhibition of colony formation in human LAPC4 cells at 10 uM incubated for 10 days by crystal violet staining based assay. Conditions: LAPC4, 240 h, time 10 day. It is filed as functional.
Assay [3] can be described thus: Downregulation of AR protein expression in human LAPC4 cells assessed as AR levels at 10 uM incubated for 24 hrs by immunoblotting analysis. In kind it is functional. (A western blot detects proteins with antibodies after separation by electrophoresis.)
For assay [4], the target named is T1, Androgen receptor (Homo sapiens) (UniProt P10275).
T1 sequence (whole entry): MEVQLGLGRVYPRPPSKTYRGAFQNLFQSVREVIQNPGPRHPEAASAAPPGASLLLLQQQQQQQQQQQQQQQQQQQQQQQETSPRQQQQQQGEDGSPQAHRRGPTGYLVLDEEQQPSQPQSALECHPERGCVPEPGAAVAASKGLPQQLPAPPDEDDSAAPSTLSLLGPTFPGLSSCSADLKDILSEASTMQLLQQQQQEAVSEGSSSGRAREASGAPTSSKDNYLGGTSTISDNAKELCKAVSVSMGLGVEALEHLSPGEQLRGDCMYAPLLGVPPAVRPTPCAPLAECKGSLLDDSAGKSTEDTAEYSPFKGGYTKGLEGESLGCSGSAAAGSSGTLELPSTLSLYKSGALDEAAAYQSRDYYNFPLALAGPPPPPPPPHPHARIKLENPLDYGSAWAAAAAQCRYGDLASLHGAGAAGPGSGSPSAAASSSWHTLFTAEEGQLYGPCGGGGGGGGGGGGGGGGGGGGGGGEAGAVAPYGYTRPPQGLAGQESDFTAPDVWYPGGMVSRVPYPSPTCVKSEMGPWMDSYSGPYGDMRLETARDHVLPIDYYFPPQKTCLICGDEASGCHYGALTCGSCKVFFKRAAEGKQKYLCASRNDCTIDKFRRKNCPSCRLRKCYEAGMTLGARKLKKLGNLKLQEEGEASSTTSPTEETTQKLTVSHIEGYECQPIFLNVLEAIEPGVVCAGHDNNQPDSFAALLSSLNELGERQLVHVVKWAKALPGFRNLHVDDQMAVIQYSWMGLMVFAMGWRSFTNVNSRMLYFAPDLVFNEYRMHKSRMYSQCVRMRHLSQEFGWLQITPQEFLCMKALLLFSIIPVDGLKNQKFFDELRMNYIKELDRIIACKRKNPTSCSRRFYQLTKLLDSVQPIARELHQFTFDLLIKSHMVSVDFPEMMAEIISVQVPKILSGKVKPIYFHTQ
Put plainly: Antagonist activity at AR in human LAPC4 cells assessed as reduction in Nkx3.1 expression at 10 uM incubated for 24 hrs in presence of R1881 by Western blotting analysis. In kind it is cell-based. Conditions: filed as antagonist.

Assay [5] concerns the target T1, Androgen receptor (Homo sapiens). Nature of the assay: Antagonist activity at AR in human LAPC4 cells assessed as reduction in PSA expression at 10 uM incubated for 24 hrs in presence of R1881 by Western blotting analysis. It is filed as cell-based. Conditions: filed as antagonist.
The subject of assay [6] is LAPC4. Nature of the assay: Cytotoxicity against human LAPC4 cells assessed as cell viability at 20 uM incubated for 72 hrs by resazurin dye based microplate reader assay. It is filed as functional. Conditions: read-out: Activity.
The subject of assay [7] is LAPC4. Nature of the assay: Downregulation of Nkx3.1 protein expression in human LAPC4 cells at 10 uM incubated for 24 hrs by immunoblotting analysis. In kind it is functional, cell-based.
Assay [8] has as its system LAPC4. Put plainly: Downregulation of PSA protein expression in human LAPC4 cells at 10 uM incubated for 24 hrs by immunoblotting analysis. It is filed as functional, cell-based.

The inhibition is the share of the control response that was lost under treatment.

The source made the active and inactive calls. The rule behind the calls is not given here.

In the case of `Cn1nc2c(c1-c1ccc(Br)cc1)C[C@@]1(C)[C@@H](CC[C@@H]3[C@@H]1CC[C@]1(C)C(=O)CC[C@@H]31)C2`, the viability at 20 µM stood at 96% in the assay with DU-145, 56% in the assay on CWR22R and 20% in the assay with LAPC4 [6]. The inhibition result in the assay on LAPC4 [1] was “Active”. Moreover, in the assay with LAPC4 [2], 10 µM produced 15% inhibition. Besides, the Activity in [3] is listed as 49%. In addition, the result in assay [4] and in assay [5] was Active.

`Cn1nc2c(c1-c1ccco1)C[C@@]1(C)[C@@H](CC[C@@H]3[C@@H]1CC[C@]1(C)[C@@H](O)CC[C@@H]31)C2`: the viability at 20 µM came to 100% in the assay with DU-145, 18% in the assay on CWR22R and 50% in the assay with LAPC4 [6]. Also, the inhibition entry in the assay with LAPC4 [1] is “Active”. This molecule also gave an inhibition at 10 µM in the assay on LAPC4 [2] of 2%. Further, in assay [3], the Activity turned out to be 78%. Moreover, the outcome in assay [4] and in assay [5] was Active.

With `Cc1c2c(nn1C)C[C@@H]1CC[C@@H]3[C@H](CC[C@]4(C)[C@@H](O)CC[C@@H]34)[C@@]1(C)C2`, the viability at 20 µM in the assay with DU-145 turned out to be 98%; with CWR22R it was 52%; in the assay on LAPC4 [6], 52%. The molecule further came in with an inhibition at 10 µM in the assay on LAPC4 [2] of 36%. Besides, the outcome with LAPC4 [7] and in the assay with LAPC4 [8] was inactive. For the same molecule, the Activity in assay [3] is recorded as 98%.

Consider `C[C@]12Cc3c(nn(-c4ccccc4)c3-c3ccc(Cl)cc3)C[C@@H]1CC[C@@H]1[C@@H]2CC[C@]2(C)C(=O)CC[C@@H]12`, for which the figures for the viability at 20 µM in the assay with DU-145, in the assay with CWR22R and in the assay with LAPC4 [6] were 98%, 93% and 83%, respectively. The molecule also returned an inhibition at 10 µM in the assay on LAPC4 [2] of 91%. The result in the assay with LAPC4 [7] and in the assay with LAPC4 [8] was inactive. Further, in assay [3], the Activity result is “>=100%”.

On to `Cc1ccc(-n2cc3c(n2)C[C@@H]2CC[C@@H]4[C@H](CC[C@]5(C)[C@@H](O)CC[C@@H]45)[C@@]2(C)C3)cc1`, for which the viability at 20 µM with DU-145 is 100%; in the assay on CWR22R, at least 100%; in the assay with LAPC4 [6], at least 100%. This molecule yielded an inhibition at 10 µM in the assay on LAPC4 [2] of 42%. Further, the outcome in the assay on LAPC4 [7] and with LAPC4 [8] was inactive. Besides, the Activity result in assay [3] is given as “>=100%”.

With `C[C@]12Cc3c(nn(-c4ccccc4)c3-c3ccc(O)cc3)C[C@@H]1CC[C@@H]1[C@@H]2CC[C@]2(C)C(=O)CC[C@@H]12`, the viability at 20 µM in the assay on DU-145 is 94%; in the assay on CWR22R, 57%; in the assay with LAPC4 [6] it was 67%. Further, the inhibition at 10 µM in the assay on LAPC4 [2] was 39%. In addition, the outcome in the assay on LAPC4 [7] and with LAPC4 [8] was inactive. Moreover, the Activity entry in assay [3] is listed as “>=100%”.

With `Cn1nc2c(c1-c1cccs1)C[C@@]1(C)[C@@H](CC[C@@H]3[C@@H]1CC[C@]1(C)[C@@H](O)CC[C@@H]31)C2`, the viability at 20 µM in the assay on DU-145 was 100%; in the assay with CWR22R it was 44%; in the assay on LAPC4 [6], 46%. For the same molecule, the inhibition entry in the assay on LAPC4 [1] is “Active”. In the assay on LAPC4 [2], this molecule displayed an inhibition at 10 µM of 1%. Further, in assay [3], the Activity is on record as 87%. For the same molecule, the result in assay [4] and in assay [5] was Active.

For the molecule `C[C@]12Cc3cn(-c4ccc(Br)cc4)nc3C[C@@H]1CC[C@@H]1[C@@H]2CC[C@]2(C)[C@@H](O)CC[C@@H]12`, the viability at 20 µM in the assay on DU-145 was at least 100%; in the assay on CWR22R, 83%; in the assay with LAPC4 [6], 79%. Further, testing at 10 µM in the assay on LAPC4 [2] gave an inhibition of 24%. Further, the outcome in the assay with LAPC4 [7] and with LAPC4 [8] was inactive. Also, the Activity result in [3] is on record as “>=100%”.

For the molecule `C[C@]12Cc3c(nn(-c4ccccc4)c3-c3ccc(Cl)cc3)C[C@@H]1CC[C@@H]1[C@@H]2CC[C@]2(C)[C@@H](O)CC[C@@H]12`, the viability at 20 µM worked out at 5% in the assay on DU-145, 4% in the assay on CWR22R and 30% with LAPC4 [6]. The molecule also came in with an inhibition at 10 µM in the assay on LAPC4 [2] of 47%. The outcome in the assay with LAPC4 [7] and with LAPC4 [8] was inactive. In addition, the Activity result in assay [3] is recorded as “>=100%”.

Regarding `C[C@]12Cc3c(nn(-c4ccccc4)c3-c3ccccc3)C[C@@H]1CC[C@@H]1[C@@H]2CC[C@]2(C)C(=O)CC[C@@H]12`, the viability at 20 µM in the assay with DU-145 was determined as 19%; in the assay on CWR22R, 19%; in the assay with LAPC4 [6] it was 61%. The molecule also gave an inhibition at 10 µM in the assay on LAPC4 [2] of 19%. Moreover, the outcome in the assay with LAPC4 [7] and in the assay with LAPC4 [8] was inactive. The Activity entry in assay [3] is reported as “>=100%”.

As to `C[C@]12Cc3c(nn(-c4ccccc4)c3-c3ccc(O)cc3)C[C@@H]1CC[C@@H]1[C@@H]2CC[C@]2(C)[C@@H](O)CC[C@@H]12`, the viability at 20 µM in the assay on DU-145 is 57%; in the assay on CWR22R, 37%; in the assay with LAPC4 [6] it was 63%. Further, in the assay on LAPC4 [2], the inhibition at 10 µM is 22%. For the same molecule, the result in the assay on LAPC4 [7] and with LAPC4 [8] was inactive. Also, the Activity result in [3] was “>=100%”.

In the case of `Cc1c2c(nn1-c1ccccc1)C[C@@H]1CC[C@@H]3[C@H](CC[C@]4(C)[C@@H](O)CC[C@@H]34)[C@@]1(C)C2`, the viability at 20 µM in the assay on DU-145 was 97%; with CWR22R it was 24%; in the assay on LAPC4 [6] it was 65%. For the same molecule, the inhibition entry in the assay on LAPC4 [1] was “Active”. In the assay on LAPC4 [2], this molecule yielded an inhibition at 10 µM of 1%. Further, the result in assay [4] and in assay [5] was Active.

Regarding `C[C@]12Cc3cn(-c4ccc(C#N)cc4)nc3C[C@@H]1CC[C@@H]1[C@@H]2CC[C@]2(C)[C@@H](O)CC[C@@H]12`, the viability at 20 µM with DU-145 was 97%; in the assay on CWR22R it was 94%; in the assay with LAPC4 [6], 93%. Also, at 10 µM the inhibition in the assay with LAPC4 [2] was 76%. In addition, the outcome in the assay on LAPC4 [7] and with LAPC4 [8] was inactive. Besides, the Activity result in assay [3] was “>=100%”.

For the molecule `C[C@]12Cc3cn(-c4ccc(F)cc4)nc3C[C@@H]1CC[C@@H]1[C@@H]2CC[C@]2(C)[C@@H](O)CC[C@@H]12`, the viability at 20 µM was at least 100% in the assay with DU-145, at least 100% in the assay on CWR22R and 95% in the assay with LAPC4 [6]. The molecule further returned an inhibition at 10 µM in the assay with LAPC4 [2] of 66%. The result in the assay with LAPC4 [7] and with LAPC4 [8] was inactive. In addition, the Activity entry in assay [3] is given as “>=100%”.

In the case of `Cc1c2c(nn1C)C[C@@H]1CC[C@@H]3[C@H](CC[C@]4(C)C(=O)CC[C@@H]34)[C@@]1(C)C2`, the viability at 20 µM in the assay on DU-145 is at least 100%; with CWR22R, 103%; in the assay on LAPC4 [6] it was 53%. Also, at 10 µM the inhibition in the assay with LAPC4 [2] was 67%. In addition, the outcome in the assay on LAPC4 [7] and with LAPC4 [8] was inactive. Also, the Activity in assay [3] is given as 86%.
